Laboratory results reported in US9464326B2, “Total and phosphorylated IL-1 receptor-associated kinase-1 and IL-1 receptor-associated kinase-4 as a biomarker for cancer progression and chemotherapy resistance” (University of Maryland, Baltimore, priority 2012, dated 2016).

System: CCRF-CEM cells
Assay: Cell number and apoptosis assays
Format: cell-based, human
Conditions: IRAK-1,-4 inhibitor 0-20 μM plus titrated drug, apoptosis by 7AAD at 48 hours, FIG. 23
Method: TLR ligands were diluted 2-fold. Cell lines (25-40×10^3/well) were cultured for 54 hours, whereas fresh patient-derived T-ALL cells (200×10^3/well) were cultured for 30 hours prior to adding [^3H]-thymidine for 18 hours. After this time point, cells were harvested with a Packard Filter-Mate-96 cell harvester (Perkin Elmer, Waltham, Mass., USA) and counted on Packard Top Count-NXT (Perkin Elmer, Waltham, Mass., USA). Results were expressed as average counts per minute (cpm). In some experiments CCRF-CEM cells were pre-treated with TLR1-TLR2 ligand (Pam3CysK4; 2.5 ug/ml) for 48 hrs, washed, and then cultured in the presence of varying concentrations of FBS. Forty-eight hours later, proliferation (±SD) was determined by ^3H-thymidine incorporation. Alternatively, apoptosis was measured by flow cytometry after staining cells with Annexin-V (BD Pharmingen, San Diego, Calif., USA) and propidium iodide (Sigma). Cell number was counted under microscopy by staining cells with trypan blue.
CCRF-CEM cells were treated with IRAK-1,-4 inhibitor for 24, 48, 72, and 96 hours.
The T-ALL cell line CCRF-CEM was cultured in the presence of 0, 1.2, 5, 10, and 20 μM IRAK-1,-4 inhibitor. (FIG. 23). To each concentration of IRAK-1,-4 inhibitor titrating doses of ABT-737 (1000→15 nM) vincristine, VS (10→0.1 nM), and paclitaxol, PAC (100→1.5 nM). […] Apoptosis was measure 48 hours later by staining cells with 7AAD and analyzed by flow cytometry.

CC[C@]1(O)C[C@H]2CN(CCc3c([nH]c4ccccc34)[C@@](C(=O)OC)(c3cc4c(cc3OC)N(C=O)[C@H]3[C@@](O)(C(=O)OC)[C@H](OC(C)=O)[C@]5(CC)C=CCN6CC[C@]43[C@@H]65)C2)C1 [vincristine] was tested, and the “synergy with IRAK-1,-4 inhibitor” value was “synergy”.
